From US20170121315A1, “HETEROBICYCLICALLY SUBSTITUTED 4-OXOBUTANE ACID DERIVATIVES AND USE THEREOF” (priority 2014, published 2017) come the findings set out here.

By IC50 is commonly meant the concentration at which inhibition is half-maximal. Low readings indicate greater potency in that assay, high ones weaker potency in that assay.

What all share (format): biochemical
One assay addresses T1, MMP-13 (Homo sapiens, UniProt P45452).
T1 construct: purchased R&D Systems 511-MP
Put plainly: In vitro MMP-13 inhibition test. The note with it: human MMP-13. From the text: (§1) The MMP-mediated amidolytic cleavage of a suitable peptide substrate leads to an increase in fluorescent light here too. The signal intensity of the fluorescent light is directly proportional to the enzyme activity. The active concentration of a test compound at which half the enzyme is inhibited (50% signal intensity of the fluorescent light) is reported as the IC50 value.
(§2) Recombinant MMP-13 (R&D Systems, 511-MP) is chemically activated in accordance with the manufacturer's instructions using APMA. 1 μl of the test compound to be analysed (as a solution in DMSO, suitable concentrations e.g. 1 nM to 30 μM) is pipetted into 24 μl of activated enzyme (final concentration e.g. 0.1 nM) in reaction buffer (50 mM Tris/HCl pH 7.5, 10 mM CaCl2, 150 mM NaCl, 0.05% Brij®-35) in a white 384-hole microtiter plate (MTP). The enzymatic reaction is started by adding the intramolecularly quenched Mca-Pro-Leu-Gly-Leu-Dpa(Dnp)-Ala-Arg-NH2 substrate (final concentration e.g. 10 μM; R&D Systems, ES-001), so as to result in a total test volume of 50 μl. The course of the MMP-13 reaction is measured by measuring the fluorescence intensity (excitation 320 nm, emission 410 nm) over a suitable period of time (e.g. over 120 min at a temperature of 32° C.).

Another assay addresses T2, MMP-14 (Homo sapiens, UniProt P50281).
T2 construct: purchased R&D Systems 918-MP
Nature of the assay: In vitro MMP-14 inhibition test. The note with it: human MMP-14.
From the text: as §1
Recombinant MMP-14 (R&D Systems, 918-MP) is enzymatically activated in accordance with the manufacturer's instructions using recombinant furin (R&D Systems, 1503-SE). 1 μl of the test compound to be analysed (as a solution in DMSO, suitable concentrations e.g. 1 nM to 30 μM) is pipetted into 24 μl of activated enzyme (final concentration e.g. 0.5 nM) in reaction buffer (50 mM Tris/HCl pH 7.5, 10 mM CaCl2, 150 mM NaCl, 0.05% Brij®-35) in a white 384-hole microtiter plate (MTP). The enzymatic reaction is started by adding the intramolecularly quenched Mca-Lys-Pro-Leu-Gly-Leu-Dpa(Dnp)-Ala-Arg-NH2 substrate (final concentration e.g. 5 μM; R&D Systems, ES-010), so as to result in a total test volume of 50 μl. The course of the MMP-14 reaction is measured by measuring the fluorescence intensity (excitation 320 nm, emission 410 nm) over a suitable period of time (e.g. over 120 min at a temperature of 32° C.).

The target of the next assay is T3, MMP-2 (Homo sapiens, UniProt P08253).
T3 construct: purchased R&D Systems 902-MP
T3 sequence (P08253 110-660): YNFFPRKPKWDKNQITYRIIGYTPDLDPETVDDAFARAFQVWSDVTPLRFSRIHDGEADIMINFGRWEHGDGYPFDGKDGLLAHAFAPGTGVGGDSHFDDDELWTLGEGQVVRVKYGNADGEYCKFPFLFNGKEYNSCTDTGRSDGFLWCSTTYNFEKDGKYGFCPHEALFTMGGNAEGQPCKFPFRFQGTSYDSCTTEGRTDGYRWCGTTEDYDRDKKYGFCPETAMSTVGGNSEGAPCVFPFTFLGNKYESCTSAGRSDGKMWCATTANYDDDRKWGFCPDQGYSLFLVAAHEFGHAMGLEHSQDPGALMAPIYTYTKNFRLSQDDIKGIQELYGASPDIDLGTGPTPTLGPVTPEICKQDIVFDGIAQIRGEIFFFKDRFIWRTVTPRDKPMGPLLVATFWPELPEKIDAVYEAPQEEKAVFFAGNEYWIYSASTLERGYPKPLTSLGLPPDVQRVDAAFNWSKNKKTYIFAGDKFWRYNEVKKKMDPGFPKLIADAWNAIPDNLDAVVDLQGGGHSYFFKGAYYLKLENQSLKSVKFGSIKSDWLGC
Nature of the assay: In vitro MMP-2 inhibition test. Conditions: human MMP-2.
From the text: as §1
as §2, with “MMP-2” for “MMP-13”, “902-MP)” for “511-MP)”, “2” for “0.1”

A further assay concerns the target T4, MMP-8 (Homo sapiens, UniProt P22894).
T4 construct: purchased R&D Systems 908-MP
Put plainly: In vitro MMP-8 inhibition test. Conditions: human MMP-8.
From the text: as §1
as §2, with “MMP-8” for “MMP-13”, “908-MP)” for “511-MP)”, “0.5” for “0.1”

T4 sequence (P22894 101-467): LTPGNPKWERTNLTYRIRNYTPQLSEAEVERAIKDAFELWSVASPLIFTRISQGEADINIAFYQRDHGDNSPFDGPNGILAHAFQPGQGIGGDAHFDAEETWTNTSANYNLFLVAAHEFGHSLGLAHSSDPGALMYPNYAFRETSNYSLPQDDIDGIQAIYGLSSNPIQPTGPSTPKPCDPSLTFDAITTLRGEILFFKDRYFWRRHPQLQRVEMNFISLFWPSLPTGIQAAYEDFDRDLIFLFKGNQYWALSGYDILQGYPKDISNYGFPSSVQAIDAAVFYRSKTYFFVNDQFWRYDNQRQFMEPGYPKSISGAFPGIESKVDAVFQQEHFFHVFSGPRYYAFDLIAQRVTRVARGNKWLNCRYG

In the case of `O=C(CC(CCn1nnc2ccccc2c1=O)C(=O)O)c1coc2cc(OCCC3CCOCC3)ccc12` (racemic) [Example 74, (+/−)-4-Oxo-2-[2-(4-oxo-1,2,3-benzotriazin-3(4H)-yl)ethyl]-4-{6-[2-(tetrahydro-2H-pyran-4-yl)ethoxy]-1-benzofur-3-yl}butanoic acid], the 50% inhibitory concentration (IC50) against MMP-13 was found to be 0.25 µM; at MMP-14 it was 1.4 µM; against MMP-2 it was 0.02 µM; against MMP-8, 0.37 µM.

For `O=C(CC(CCn1nnc2ccccc2c1=O)C(=O)O)c1cc2cc(OCc3ccc(F)cc3)ccc2o1` (single isomer, unassigned; (+)) [Example 23, (+)-4-{5-[(4-Fluorobenzyl)oxy]-1-benzofur-2-yl}-4-oxo-2-[2-(4-oxo-1,2,3-benzotriazin-3(4H)-yl)ethyl]butanoic acid], the half-maximal inhibitory concentration (IC50) against MMP-13 was 5.3 µM; on MMP-14, 15 µM; against MMP-2 it was 1.9 µM; against MMP-8 it was 6.3 µM.

Regarding `O=C(C[C@H](CCn1nnc2ccccc2c1=O)C(=O)O)c1noc2cc(OCC3CCOCC3)ccc12` (single isomer, unassigned; enantiomer 2) [Example 135], the IC50 at MMP-13 is 1.5 µM; against MMP-14 it was 3.5 µM; at MMP-2, 0.27 µM; against MMP-8, 0.17 µM.

As to `O=C(CC(CCn1nnc2ccccc2c1=O)C(=O)O)c1coc2cc(OCCC3CCCC3)ccc12` (racemic) [Example 75, (+/−)-4-[6-(2-Cyclopentylethoxy)-1-benzofur-3-yl]-4-oxo-2-[2-(4-oxo-1,2,3-benzotriazin-3(4H)-yl)ethyl]butanoic acid], the IC50 against MMP-13 was 3.8 µM; against MMP-14, 6.5 µM; against MMP-2, 0.39 µM; on MMP-8 it was 3.3 µM.

As to `CCCCCOc1ccc2cc(C(=O)CC(CCn3nnc4ccccc4c3=O)C(=O)O)sc2c1` (racemic) [Example 118, (+/−)-4-Oxo-2-[2-(4-oxo-1,2,3-benzotriazin-3(4H)-yl)ethyl]-4-[6-(pentyloxy)-1-benzothiophen-2-yl]butanoic acid], the IC50 on MMP-13 came to 1.1 µM; on MMP-14 it was 19 µM; against MMP-2, 0.35 µM; on MMP-8 it was 9.3 µM.

Turning to `O=C(CC(CCn1nnc2ccccc2c1=O)C(=O)O)c1onc2cc(OCc3ccccc3)ccc12` (racemic) [Example 156, (+/−)-4-[6-(Benzyloxy)-2,1-benzoxazol-3-yl]-4-oxo-2-[2-(4-oxo-1,2,3-benzotriazin-3(4H)-yl)ethyl]butanoic acid], the half-maximal inhibitory concentration (IC50) at MMP-13 is 2.2 µM; against MMP-14, 9.3 µM; against MMP-2, 1.4 µM; on MMP-8 it was 2.8 µM.

For `O=C(CC(CCn1nnc2ccc(C(F)(F)F)cc2c1=O)C(=O)O)c1noc2cc(OCC3CCOCC3)ccc12` (racemic) [Example 155, (+/−)-4-Oxo-2-{2-[4-oxo-6-(trifluoromethyl)-1,2,3-benzotriazin-3(4H)-yl]ethyl}-4-[6-(tetrahydro-2H-pyran-4-ylmethoxy)-1,2-benzoxazol-3-yl]butanoic acid], the IC50 on MMP-13 was 2.7 µM; at MMP-14, over 40 µM; against MMP-2, 4.5 µM; against MMP-8, 0.082 µM.

For `O=C(CC(CCn1nnc2ccccc2c1=O)C(=O)O)c1noc2cc(OCC3CCCCC3)ccc12` (racemic) [Example 153, (+/−)-4-[6-(Cyclohexylmethoxy)-1,2-benzoxazol-3-yl]-4-oxo-2-[2-(4-oxo-1,2,3-benzotriazin-3(4H)-yl)ethyl]butanoic acid], the IC50 amounted to 2.8 µM on MMP-13, 5.5 µM on MMP-14, 0.42 µM against MMP-2 and 1.7 µM on MMP-8.

As to `CCCCCOc1ccc2c(C(=O)CC(CCn3nnc4ccccc4c3=O)C(=O)O)coc2c1` (single isomer, unassigned) [Example 91, 4-Oxo-2-[2-(4-oxo-1,2,3-benzotriazin-3(4H)-yl)ethyl]-4-[6-(pentyloxy)-1-benzofur-3-yl]butanoic acid], the IC50 against MMP-13 turned out to be 0.37 µM; against MMP-14, 4 µM; against MMP-2, 0.096 µM; against MMP-8 it was 0.94 µM.

Turning to `O=C(CC(CCn1nnc2ccccc2c1=O)C(=O)O)c1cc2ccc(OCCCC3CCCCC3)cc2o1` (racemic) [Example 71, (+/−)-4-[6-(3-Cyclohexylpropoxy)-1-benzofur-2-yl]-4-oxo-2-[2-(4-oxo-1,2,3-benzotriazin-3(4H)-yl)ethyl]butanoic acid], the IC50 against MMP-13 was 30 µM; on MMP-14, over 40 µM; on MMP-2, over 40 µM; against MMP-8, over 40 µM.

With `O=C(CC(CCn1nnc2ccccc2c1=O)C(=O)O)c1cc2ccc(OCC3CC3)cc2s1` (racemic) [Example 111, (+/−)-4-[6-(Cyclopropylmethoxy)-1-benzothiophen-2-yl]-4-oxo-2-[2-(4-oxo-1,2,3-benzotriazin-3(4H)-yl)ethyl]butanoic acid], the IC50 against MMP-13 worked out at 1.9 µM; at MMP-14 it was 6 µM; against MMP-2 it was 0.35 µM; against MMP-8, 0.46 µM.

With `O=C(CC(CCn1nnc2ccccc2c1=O)C(=O)O)c1cc2cc(OCc3ccccc3)ccc2o1` (single isomer, unassigned; (+)) [Example 30, (+)-4-[5-(Benzyloxy)-1-benzofur-2-yl]-4-oxo-2-[2-(4-oxo-1,2,3-benzotriazin-3(4H)-yl)ethyl]butanoic acid], the concentration for half-maximal inhibition (IC50) on MMP-13 was 10 µM; on MMP-14, 31 µM; at MMP-2 it was 6.1 µM; against MMP-8 it was 32 µM.

Take `O=C(CC(CCn1nnc2ccccc2c1=O)C(=O)O)c1cc2cc(OCCc3ccccc3Cl)ccc2o1` (racemic) [Example 1, (+/−)-4-{5-[2-(2-Chlorophenyl)ethoxy]-1-benzofur-2-yl}-4-oxo-2-[2-(4-oxo-1,2,3-benzotriazin-3(4H)-yl)ethyl]butanoic acid]: the half-inhibitory concentration (IC50) at MMP-13, at MMP-14, on MMP-2 and against MMP-8 was over 40 µM in each case.
